Read-outs that look alike come from different tables or passages of the source.

A short description of data set [1]: Storage stability in air at room temperature. The settings on record: similar to GLA, best stored long term in a cool place under nitrogen. The class given is physicochemical. How it is done: For the purposes of this exemplification, the synthesis of this ester was carried out by acylation of the commercially available glycerol formal mixture using γ-linolenoyl chloride. By this method a mixture of two products is formed and these were separable by column chromatography. The undesired by-product is eluted off the column first; further elution gives the desired acetal-ester.

The subject of data set [2] is TGF-β1. The data set can be described thus: TGF-β1 production by spleen mononuclear cells of C57/BL mice dosed orally with 2 GLA MG formal (ELISA). It is filed as in vivo. The settings on record: for Spleen mononuclear cell TGFβ production: Con A and unstimulated data combined, n=9/group, mean ± SEM. The protocol: C57/BL mice were dosed orally with 2 GLA MG formal at two doses of 50 and 150 ul for eight days. The compound was supplied in 8 separate tubes to be stored at 4° C. prior to dosing but warmed to 25° C. before use.
Data were therefore combined for the purposes of statistical analysis (n=9/group). Data were analysed using Graphpad Instat.
On the technique in general: In an ELISA, binding on a coated surface is turned into a signal by an enzyme label.

For data set [3] the following is noted: mouse, in vivo.
The subject of data set [4] is TGF-β1. The settings on record: monoglyceride 50 μg. The protocol:
Solublization of Sn-2 monoglyceride was performed using ethyl alcohol or DMSO for in vitro work on human peripheral blood mononuclear cells (PBMCs). […] SJL mice were fed sn-2 GLA of Example 1 at three doses (50, 125 and 250 μl) for seven days by gavage. […] After seven days animals were killed and the brain, liver and spleen were removed the liver and brain frozen at −70° C. and mononuclear cells were isolated from spleens by sieving and density centrifugation on Lymphoprep (Sigma Chemical Co) and cultured at 37° C. in 5% CO2 atmosphere in 5 ml culture tubesat a cell density of 1×10^6 cells/ml in RPMI 1640 medium in 5% foetal calf serum (FCS). Cells were cultured with and without 1 μg/ml or […] concanavalin A (Con A) for approximately 20 hours and the supernatants removed and stored at −70° C. until required. Mouse […] was measured in supernatants using a commercially available ELISA (Promega, Madison Wis.).

`CCCCC/C=C\C/C=C\C/C=C\CCCCC(=O)OC1COCOC1` [GLA 2-MG-F, 5-(γ-linolenoyloxy)-1,3-dioxan]: in data set [1], the Stability in air result was “stable in air at room temperature for short periods (days)”. The “Spleen mononuclear cell TGFβ production” value in data set [2] (50 ul orally for eight days) turned out to be 90.9 ± 5.2 pg/mL. For the same compound, in data set [2] (150 ul orally for eight days), the “Increase of spleen mononuclear cell TGFβ production vs controls” value was “P < 0.0001 ↑ 103%” and the “Spleen mononuclear cell TGFβ production” value was 158.6 ± 7.5 pg/mL.
As for `CCCCC/C=C\C/C=C\C/C=C\CCCCC(=O)OC(CO)CO` [γ-linolenic acid monoglyceride], the Regurgitation after gavage result in data set [3] was “prone to regurgitation”. In addition, the results for the “Change % of TGF-β1 production vs control” value in data set [4] (Con A 0 μg/ml), in data set [4] (Con A 1 μg/ml) and in data set [4] (Con A 25 μg/ml) were 80%, 79% and 42%, respectively. Also, the “TGF-β1 production from spleen PBMCs, unstimulated” value in data set [4] (Con A 0 μg/ml, fed by gavage for seven days, cells cultured about 20 hours) is 377 pg/mL. Moreover, the “TGF-β1 production from spleen PBMCs, stimulated (Con A)” value in data set [4] (Con A 1 μg/ml, fed by gavage for seven days, cells cultured about 20 hours) stood at 409 pg/mL; in data set [4] (Con A 25 μg/ml, fed by gavage for seven days, cells cultured about 20 hours), 480 pg/mL.

The values are drawn from patent US8114903B2, “Cytokine modulators using cyclic glycerides of essential polyunsaturated fatty acids” (BTG International Limited, priority 2005, dated 2012).
